Test system: isl1+ cardiac progenitor cells
Experiment: Chemical compound screen with β-gal tagged isl1+ cardiac progenitors (luciferase/β-gal activity, β-gal+ cell count, isl1 immunohistochemistry)
Assay type: cell-based, mouse
Description: The inventors developed an assay based on the β-gal tagged cardiac progenitors to identify small molecules and defined factors that can trigger the renewal of the cardiac progenitors (FIGS. 4A and 4B). The isl1-mER-Cre-mER knock-in mice were utilized to conditionally mark embryonic and post-natal isl1+ cardiac progenitors. Mice which are double heterozygous for the isl1-mER-Cre-mER and the R26R-indicator allele allow the purification of a relatively homogeneous population of isl1+ cardiac progenitors after amplification on mesenchymal feeder layers.
The β-gal substrate 6-O-β-galactopyranosyl-luciferin allows luciferase-mediated detection of light emission in genetically lacZ labelled cells in a high throughput manner (FIGS. 4A and 4B). 6-O-galactopyranosyl-luciferin is cleaved by (3-gal into D-Luciferin, which is processed by luciferase in an ATP-dependent step into Oxyluciferin and light.
After screening a small molecule library containing over 15,000 compounds, a series of compounds that can trigger the expression of lacZ activity as well as the induction of the isl1 protein in cultured cardiac progenitor preparations was identified.
The screen was based on three independent read-out systems. First, the chemical compound library was screened for luciferase activity, and thereby indirectly for β-gal activity of proliferating cells. Second, β-gar progenitor cells were counted within the mesenchymal feeder layers with and without compound treatment, and third, expression of the transcription factor isl1^+ per progenitor cell was screened in an immunohistochemically based analysis.

Structure (SMILES): O=C1Nc2cc(Br)ccc2/C1=C1/Nc2ccccc2/C1=N\O [BIO, 6-bromoindirubin-3′-oxime]
- effect on the proliferation capacity of isl1+ cardiac progenitor cells: 50-80 fold
- β-galactosidase activity (cardiac progenitor cells from isl1-mER-Cre-mER/R26R mice, after 4 days in culture, luciferase assay): significant increase
- β-gal+ progenitor cell number (cells counted within mesenchymal feeder layers with and without compound treatment): significant increase
- proliferation of isl1+ precursor cells (result in words (FIG. 5 legend)): significant increase

From US8323909B2, “Methods of identifying small molecules for renewals, survival and migration of cardiac progenitors” (The Regents of the University of California, priority 2006, dated 2012)
